In the supplement of paper PMC10307832:

How the values were obtained:
Assay in all cases: relative viability (nuclei count vs DMSO), 5 days (fraction); higher = more cells survive
KIN001-266 = compound: CCN1CCC(CC1)N2C=C(N=N2)CNC3=CC4=C(C(=CN=C4C(=C3)Cl)C#N)NC5=CC(=C(C=C5)F)Cl [KIN001-266]
Outline: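 Viability was read as treated-well nuclei divided by vehicle-well nuclei, using the median across plates. Lung cancer cell lines in 1536-well plates were kept overnight at 37 °C, pinned with five √10-spaced library-drug doses, and after 5 days were Hoechst-stained, imaged at 4× and counted in MetaXpress. Plates passed only with control CV below 25% and at least one doubling.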

KIN001-266 + Bortezomib = compound: CCN1CCC(CC1)N2C=C(N=N2)CNC3=CC4=C(C(=CN=C4C(=C3)Cl)C#N)NC5=CC(=C(C=C5)F)Cl [KIN001-266] + CC(C)C[C@H](NC(=O)[C@H](Cc1ccccc1)NC(=O)c1cnccn1)B(O)O [Bortezomib] (partner 0.002 µM)
Outline: (§1)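 Lung cancer cell lines in 1536-well plates were dosed by pin tool the day after seeding, either with one drug alone or with a fixed anchor-drug dose plus five library-drug doses (not always all listed) in √10 steps. After 5 days, cells were fixed and their nuclei stained in one step (final 0.05% Triton X-100, 1% formaldehyde, 1 ug/ml Hoechst), then counted on 4× images. Relative viability is the nuclei count in treated wells divided by that in vehicle wells. Values are medians of duplicate plates.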

KIN001-266 + Olaparib = compound: CCN1CCC(CC1)N2C=C(N=N2)CNC3=CC4=C(C(=CN=C4C(=C3)Cl)C#N)NC5=CC(=C(C=C5)F)Cl [KIN001-266] + O=C(c1cc(Cc2n[nH]c(=O)c3ccccc23)ccc1F)N1CCN(C(=O)C2CC2)CC1 [Olaparib] (partner 8 µM)
Outline: as §1

KIN001-266 + Lapatinib = compound: CCN1CCC(CC1)N2C=C(N=N2)CNC3=CC4=C(C(=CN=C4C(=C3)Cl)C#N)NC5=CC(=C(C=C5)F)Cl [KIN001-266] + CS(=O)(=O)CCNCc1ccc(-c2ccc3ncnc(Nc4ccc(OCc5cccc(F)c5)c(Cl)c4)c3c2)o1 [Lapatinib] (partner 2 µM)
Outline: as §1

KIN001-266 + Foretinib = compound: CCN1CCC(CC1)N2C=C(N=N2)CNC3=CC4=C(C(=CN=C4C(=C3)Cl)C#N)NC5=CC(=C(C=C5)F)Cl [KIN001-266] + COc1cc2c(Oc3ccc(NC(=O)C4(C(=O)Nc5ccc(F)cc5)CC4)cc3F)ccnc2cc1OCCCN1CCOCC1 [Foretinib] (partner 0.25 µM)
Outline: as §1

KIN001-266 + Crizotinib = compound: CCN1CCC(CC1)N2C=C(N=N2)CNC3=CC4=C(C(=CN=C4C(=C3)Cl)C#N)NC5=CC(=C(C=C5)F)Cl [KIN001-266] + C[C@@H](Oc1cc(-c2cnn(C3CCNCC3)c2)cnc1N)c1c(Cl)ccc(F)c1Cl [Crizotinib] (partner 1 µM)
Outline: as §1

KIN001-266 + Navitoclax = compound: CCN1CCC(CC1)N2C=C(N=N2)CNC3=CC4=C(C(=CN=C4C(=C3)Cl)C#N)NC5=CC(=C(C=C5)F)Cl [KIN001-266] + CC1(C)CCC(c2ccc(Cl)cc2)=C(CN2CCN(c3ccc(C(=O)NS(=O)(=O)c4ccc(N[C@H](CCN5CCOCC5)CSc5ccccc5)c(S(=O)(=O)C(F)(F)F)c4)cc3)CC2)C1 [Navitoclax] (partner 0.5 µM)
Outline: as §1

KIN001-266 + Linsitinib = compound: CCN1CCC(CC1)N2C=C(N=N2)CNC3=CC4=C(C(=CN=C4C(=C3)Cl)C#N)NC5=CC(=C(C=C5)F)Cl [KIN001-266] + C[C@]1(O)C[C@@H](c2nc(-c3ccc4ccc(-c5ccccc5)nc4c3)c3c(N)nccn32)C1 [Linsitinib] (partner 1 µM)
Outline: as §1

KIN001-266 + Alpelisib = compound: CCN1CCC(CC1)N2C=C(N=N2)CNC3=CC4=C(C(=CN=C4C(=C3)Cl)C#N)NC5=CC(=C(C=C5)F)Cl [KIN001-266] + Cc1nc(NC(=O)N2CCC[C@H]2C(N)=O)sc1-c1ccnc(C(C)(C)C(F)(F)F)c1 [Alpelisib] (partner 2 µM)
Outline: as §1

KIN001-266 + Pictilisib = compound: CCN1CCC(CC1)N2C=C(N=N2)CNC3=CC4=C(C(=CN=C4C(=C3)Cl)C#N)NC5=CC(=C(C=C5)F)Cl [KIN001-266] + CS(=O)(=O)N1CCN(Cc2cc3nc(-c4cccc5[nH]ncc45)nc(N4CCOCC4)c3s2)CC1 [Pictilisib] (partner 1 µM)
Outline: as §1

Cell Line Calu-6 has a relative viability (KIN001-266; 0.08 µM) of 0.995, a relative viability (KIN001-266; 0.253 µM) of 1.04 and a relative viability (KIN001-266; 0.8 µM) of 1.02. For the same cell line, the relative viability (KIN001-266; 2.53 µM) was 0.969, the relative viability (KIN001-266; 8 µM) was 0.798 and the relative viability (KIN001-266 + Bortezomib; first compound 0.08 µM) was 1.11. It also gave a relative viability (KIN001-266 + Bortezomib; first compound 0.253 µM) of 1.11, a relative viability (KIN001-266 + Bortezomib; first compound 0.8 µM) of 1.05 and a relative viability (KIN001-266 + Bortezomib; first compound 2.53 µM) of 0.948. For the same cell line, the relative viability (KIN001-266 + Bortezomib; first compound 8 µM) was 0.682, the relative viability (KIN001-266 + Olaparib; first compound 0.08 µM) was 0.649 and the relative viability (KIN001-266 + Olaparib; first compound 0.253 µM) was 0.653. It also gave a relative viability (KIN001-266 + Olaparib; first compound 0.8 µM) of 0.587, a relative viability (KIN001-266 + Olaparib; first compound 2.53 µM) of 0.542 and a relative viability (KIN001-266 + Olaparib; first compound 8 µM) of 0.365. It also gave a relative viability (KIN001-266 + Lapatinib; first compound 0.08 µM) of 1.09, a relative viability (KIN001-266 + Lapatinib; first compound 0.253 µM) of 1.05 and a relative viability (KIN001-266 + Lapatinib; first compound 0.8 µM) of 1.02. For the same cell line, the relative viability (KIN001-266 + Lapatinib; first compound 2.53 µM) was 1, the relative viability (KIN001-266 + Lapatinib; first compound 8 µM) was 0.899 and the relative viability (KIN001-266 + Foretinib; first compound 0.08 µM) was 0.921. For the same cell line, the relative viability (KIN001-266 + Foretinib; first compound 0.253 µM) was 0.861, the relative viability (KIN001-266 + Foretinib; first compound 0.8 µM) was 0.925 and the relative viability (KIN001-266 + Foretinib; first compound 2.53 µM) was 0.917. It also gave a relative viability (KIN001-266 + Foretinib; first compound 8 µM) of 0.609, a relative viability (KIN001-266 + Crizotinib; first compound 0.08 µM) of 0.768 and a relative viability (KIN001-266 + Crizotinib; first compound 0.253 µM) of 0.763. The relative viability (KIN001-266 + Crizotinib; first compound 0.8 µM) was 0.825, the relative viability (KIN001-266 + Crizotinib; first compound 2.53 µM) was 0.81 and the relative viability (KIN001-266 + Crizotinib; first compound 8 µM) was 0.595. The relative viability (KIN001-266 + Navitoclax; first compound 0.08 µM) was 0.868, the relative viability (KIN001-266 + Navitoclax; first compound 0.253 µM) was 0.877 and the relative viability (KIN001-266 + Navitoclax; first compound 0.8 µM) was 0.859. The relative viability (KIN001-266 + Navitoclax; first compound 2.53 µM) was 0.64, the relative viability (KIN001-266 + Navitoclax; first compound 8 µM) was 0.437 and the relative viability (KIN001-266 + Linsitinib; first compound 0.08 µM) was 1.03. For the same cell line, the relative viability (KIN001-266 + Linsitinib; first compound 0.253 µM) was 0.978, the relative viability (KIN001-266 + Linsitinib; first compound 0.8 µM) was 0.955 and the relative viability (KIN001-266 + Linsitinib; first compound 2.53 µM) was 0.943. It also gave a relative viability (KIN001-266 + Linsitinib; first compound 8 µM) of 0.836, a relative viability (KIN001-266 + Alpelisib; first compound 0.08 µM) of 1.16 and a relative viability (KIN001-266 + Alpelisib; first compound 0.253 µM) of 0.915. The relative viability (KIN001-266 + Alpelisib; first compound 0.8 µM) was 1.1, the relative viability (KIN001-266 + Alpelisib; first compound 2.53 µM) was 0.915 and the relative viability (KIN001-266 + Alpelisib; first compound 8 µM) was 0.86. It also gave a relative viability (KIN001-266 + Pictilisib; first compound 0.08 µM) of 0.933, a relative viability (KIN001-266 + Pictilisib; first compound 0.253 µM) of 0.9 and a relative viability (KIN001-266 + Pictilisib; first compound 0.8 µM) of 1.08. For the same cell line, the relative viability (KIN001-266 + Pictilisib; first compound 2.53 µM) was 0.805 and the relative viability (KIN001-266 + Pictilisib; first compound 8 µM) was 0.765.
